Laboratory results taken from patent US20050191348A1 (priority 2004, published 2005).

Columns and labels:
sAPPα [1] = assay: sAPPα release into medium of SH-SY5Y neuroblastoma cells; type: cell-based, human; details: SH-SY5Y, 0.1, 1 and 10 μM, 3 h, versus untreated cells
Procedure: (§1) For the experiments, cells were seeded (2×10^6) onto 100-mm plates (for SH-SY5Y cells) or T75 flasks (for PC12 cells) in culture medium supplemented with full serum for 48 h. The cells were replaced with fresh medium containing 0.5% FCS for an additional 24 h (subconfluent culture), and then the experiments were performed in fresh medium containing 0.5% FCS for the indicated time periods at 37° C. After incubation with various drugs, the conditioned media were collected, centrifuged at 3500 g (10 min, 4° C.) to remove cell debris, and the cleared supernatants were concentrated 10-fold by lyophilization.
(vii) Determination of sAPP. Protein concentrations of cell lysates were assayed using Bradford reagent (Sigma Chemical). Equal amounts of volumes of conditioned medium, standardized to lysate protein, were subjected to […], using either the MAbs 22C11 or 6E10 in 50 mM Tris-HCl, pH 7.4, 150 mM NaCl, containing 0.05% Tween 20 and 1% BSA. Immunoreactivity was detected using anti-mouse IgG-conjugated with HRP and an enhanced chemiluminescence method (Amersham, Pharmacia Biotech, UK). Blots were developed for different times to span a linear range of response, and the relative intensity of immunoreactive bands on the exposed films was quantified by computer-assisted densitometry program (Quantity One, Bio-Rad, Hercules, Calif., USA).
It was of interest to determine whether rasagiline and other propargylamine-containing drugs also regulate APP processing. For this purpose, SH-SY5Y neuroblastoma cells were incubated for 3 h without or with 1 μM of various drugs (TV3326 and its S-isomer TV3279, rasagiline and its S-isomer TVP1022, selegiline, aminoindan), and sAPPα was measured in the media as described in Materials and Methods.
We further characterized, in detail, the effect of rasagiline on APP processing and the signaling pathways that are involved. Thus, SH-SY5Y neuroblastoma cells were incubated for 3 h without or with increasing concentrations of rasagiline (0.1, 1 and 10 μM), and sAPPα was measured in the media as described in Materials and Methods.
For the sAPPα release, SH-SY5Y neuroblastoma cells or PC12 cells were incubated for 3 h without or with increasing concentrations of propargylamine (0.1, 1 and 10 μM), and sAPPα was measured in the media as described in Materials and Methods.

sAPPα [2] = assay: sAPPα release into medium of PC12 cells; type: cell-based, rat; details: PC12, 0.1, 1 and 10 μM, 3 h
Procedure: as §1
(vii) Determination of sAPP. […] Immunoreactivity was detected using anti-mouse IgG-conjugated with HRP and an enhanced chemiluminescence method (Amersham, Pharmacia Biotech, UK). Blots were developed for different times to span a linear range of response, and the relative intensity of immunoreactive bands on the exposed films was quantified by computer-assisted densitometry program (Quantity One, Bio-Rad, Hercules, Calif., USA).
We further characterized, in detail, the effect of rasagiline on APP processing and the signaling pathways that are involved. Thus, SH-SY5Y neuroblastoma cells were incubated for 3 h without or with increasing concentrations of rasagiline (0.1, 1 and 10 μM), and sAPPα was measured in the media as described in Materials and Methods. […]

caspase-3 = assay: Caspase-3 cleavage in SH-SY5Y cells in serum free medium; type: cell-based, human; details: 3 days serum free, then 48 h with 1, 10 μM
Procedure: FIGS. 3A-3D show the neuroprotective effects of propargylamine against serum deprivation. PC12 cells (3A) and SH-SY5Y neuroblastoma cells (3B) were incubated under serum deprivation and were untreated or treated with propargylamine (0.1, 1, 10 μM) for 24 hours. Cell death was detected by ELISA and the values are expressed as a percentage of the control. The results are the mean±SEM (n=3). *p<0.05 vs. control, untreated cells. (3C) Morphological characteristics visualized by phase-contrast microscope of PC12 cells maintained with full serum medium (a), or serum-free medium in the absence (b) or presence of propargylamine (1 μM) (c) or (10 μM) (d). The morphology was visualized by phase-contrast microscope. The results are representative photographic. Similar results were repeated 3 times. (3D) Effect of propargylamine on caspase-3 cleavage in SH-SY5Y neuroblastoma cells incubated 3 days in serum free medium, followed by 48 h incubation with or without propargylamine (1,10 μM).
(iv) Immunoblot Analyses. […] Protein content was determined using the Bradford method. […] Quantification of results was accomplished by measuring the optical density of the labeled bands from the autoradiograms by scanning laser densitometry using the computerized imaging program Bio-ID (Imager, Bio1D software; Vilber Lourmat, Marne La Vallee, France). […]

## C#CCN [propargylamine]
sAPPα [1]
  sAPPα released into the medium: significant, dose-dependent increase in sAPPα
sAPPα [2]
  sAPPα released into the medium: significant, dose-dependent increase in sAPPα
caspase-3
  activated caspase-3: decreased activated caspase-3
